The source of these data is patent publication US20040225128A1 (priority 2001, published 2004).

Where a name gives a salt, the structure may show the parent alone. Read-outs that look alike come from different tables or passages of the source.

One series in a line: Hygroscopicity. The format is physicochemical.
The conditions of series [1]: as described in European Patent 0223403B; cited from earlier work.
The conditions of series [2]: as described in European Patent 0223403B; cited from earlier work. The source holds these as a separate data set.

Consider `Fc1ccc([C@@H]2CCNC[C@H]2COc2ccc3c(c2)OCO3)cc1` [Example 3, paroxetine isethionate], for which the “Hygroscopicity (in words)” value in “Hygroscopicity” is “practically no adverse hygroscopicity characteristics”.

Regarding `Fc1ccc([C@@H]2CCNC[C@H]2COc2ccc3c(c2)OCO3)cc1` [Example 9, paroxetine hydrochloride hemi hydrate], the “Hygroscopicity (in words)” value in series [1] was “non-hygroscopic”. The “Stability (in words)” value in series [2] is “stable”.
